Assays:
glioblastoma [1] = conditions: TMZ during radiotherapy and for six months post radiotherapy; cited from earlier work
[2] = tested on: cerebellar metastasis of breast cancer; test: Delayed contrast extravasation MRI maps before and after Avastin treatment, patient case (Example 15); type: in vivo, human; conditions: one patient, 2 years after stereotactic radiosurgery; maps before vs after Avastin treatment
Text: There is current dispute weather Avastin affects active tumor or only treatment effects.
A patient with cerebellar metastasis of breast cancer was recruited 2 years after stereotactic radiosurgery with suspected radiation necrosis.

recurrent GBM = test: Conventional MRI and maps follow-up of a recurrent GBM patient on Bevacizumab (Example 3); type: in vivo, human; conditions: one patient, three months after initiation of Bevacizumab treatment
Text: Referring now to FIG. 8, a person with recurrent GBM was recruited 7 month after diagnosis prior to initiation of Bevacizumab treatment. At diagnosis the patients was operated on and received chemoradiation followed by TMZ. Six months later, at progression, the patient underwent a second resection and was recruited to the present Bevacizumab study 1 month after the second surgery, prior to initiation of the Bevacizumab treatment. At this point their enhancing lesion consisted of nearly 50% tumor according to the maps. […] Following this scan the patient was treated with re-irradiation (in parallel with continuing Bevacizumab) and was stabilized. […] The patient lived another ˜7 months after this last MRI scan.

glioblastoma [3] = conditions: glioblastoma patients at progression after standard therapy; results of 2 studies; cited from earlier work

| Compound | additional toxicity (glioblastoma [1]) | response of tumor and radiation necrosis components in the maps [2] | conventional MRI finding (recurrent GBM) | blue/tumor volume in the maps (recurrent GBM; consistent with clinical deterioration) | tumor size (glioblastoma [3]) |
| --- | --- | --- | --- | --- | --- |
| Cn1nnc2c(C(N)=O)ncn2c1=O [temozolomide] | minimal additional toxicity |  |  |  |  |
| Bevacizumab |  | remarkable response of both components | showed improvement | significantly larger blue/tumor volume | reduced tumor size in some glioblastoma patients |
